One test concerns CMK cells. The test can be described thus: Polyploidization of CMK cells (DNA content). The test is classed as cell-based, human. As to conditions: CMK cells. The method, then: (A) Y10, (B) GIME, and (C) CMK cells were grown in the presence of TPO, SU6656, or vehicle (DMSO) for 72 hours. DNA content was measured by flow cytometry. The percentages of cells that reach a DNA content of ≧8N are boxed in A and C, those equal to 8N are boxed in B. D) CMK cells were grown as in (C), and cell numbers were enumerated at 0, 24, 48 and 72 h.
To study how megakaryocytes switch from a proliferative to endomitotic cell cycle, the Src kinase inhibitor SU6656 is being utilized.
In collaboration with the Broad Institute, a high throughput screen for small molecules was conducted to identify small molecules that preferentially induce polyploidization or differentiation of megakaryocytes. We screened 10,000 compounds from the Broad's extensive collection of small molecules (including known bioactives, kinase and HDAC inhibitors, and natural products) to identify inducers of megakaryocyte polyploidization. […] 6) Data were analyzed using both MetaXpress software and “Cell Profiler,” software designed at MIT and the Broad Institute. […]

The next test concerns GIME cells. The test is classed as cell-based. As to conditions: 10 μM, 48 hours, DMSO 0.3%. On the procedure: DNA content was then assessed by flow cytometry. Numbers above the bar indicate % of cells ≧8N. b) After 48 hours, GIME cells from a) were stained with anti-CD42 antibodies and the cell surface expression of CD42 was evaluated by flow cytometry.
In collaboration with the Broad Institute, a high throughput screen for small molecules was conducted to identify small molecules that preferentially induce polyploidization or differentiation of megakaryocytes. We screened 10,000 compounds from the Broad's extensive collection of small molecules (including known bioactives, kinase and HDAC inhibitors, and natural products) to identify inducers of megakaryocyte polyploidization. The screen was performed in the following manner: 1) 4,000 CMK (human megakaryocytic leukemia) cells were plated into each well of a 384-well plate, 2) 100 n1 of compounds (yielding a final concentration of 10 μM) were pinned into the wells, 3) plates were incubated at 37° C. for 72 hours, 4) cells were fixed and stained with Hoescht, and 5) plates were imaged using an ImageXpressMICRO high content imager with 20× objective. Nine images per well were collected. 6) Data were analyzed using both MetaXpress software and “Cell Profiler,” software designed at MIT and the Broad Institute. Seventy-two plates containing duplicates of nearly 10,000 small molecules were screened.

For test [1], the system named is CD41+ megakaryocyte fraction. The test can be described thus: Polyploidization of primary human megakaryocytes (CD34+ cells cultured with TPO), CD41+ fraction. The test is classed as cell-based. As to conditions: CD34+ cells cultured with TPO 12 days, compound added after 9 days. The method, then: FIG. 4 illustrates that DMF induces polyploidization of normal human megakaryocytes and that its activity is restricted to the CD41+ population. Human CD34+ cells were cultured with TPO for 12 days and then fixed and stained with DAPI. DMSO or DMF were added to the culture after 9 days. DNA content was then assessed by flow cytometry. Numbers above the bar indicate % of cells ≧8N.
In collaboration with the Broad Institute, a high throughput screen for small molecules was conducted to identify small molecules that preferentially induce polyploidization or differentiation of megakaryocytes. We screened 10,000 compounds from the Broad's extensive collection of small molecules (including known bioactives, kinase and HDAC inhibitors, and natural products) to identify inducers of megakaryocyte polyploidization. The screen was performed in the following manner: 1) 4,000 CMK (human megakaryocytic leukemia) cells were plated into each well of a 384-well plate, 2) 100 n1 of compounds (yielding a final concentration of 10 μM) were pinned into the wells, 3) plates were incubated at 37° C. for 72 hours, 4) cells were fixed and stained with Hoescht, and 5) plates were imaged using an ImageXpressMICRO high content imager with 20× objective. Nine images per well were collected. 6) Data were analyzed using both MetaXpress software and “Cell Profiler,” software designed at MIT and the Broad Institute. […]

Test [2] deals with 6133/MPL megakaryocytic leukemia cells. The test can be described thus: 6133/MPL transplant model of AMKL, oral gavage treatment. It is filed as in vivo, C57B1/6 mice. As to conditions: for lifespan: from day 3. On the procedure:
FIG. 10 illustrates that DMF prevents AMKL in vivo. N=7 per group. […] transplant recipients were treated with two daily doses of vehicle, 33 mg/kg DMF, or 66 mg/kg DMF by oral gavage. Treatment with 33 or 66 mg/kg DMF led to statistically significant extensions in leukemia free survival (p=0.003 and 0.004 respectively).
To determine whether polyploidization-inducing agents can serve as new therapies for AMKL, DMF was assessed in an animal model for AMKL. To this end, an animal model of AMKL was developed by transplanting 6133/MPL megakaryocytic leukemia cells into sub-lethally irradiated recipient C57B1/6 mice. The parental 6133 cell line, which is dependent upon TPO for survival, was derived from a leukemic mouse that expressed the AMKL t(1:22) fusion protein OTT-MAL by knock-in gene targeting (35). 6133 cells were then transduced with a MPLW515L expressing retrovirus, and stable TPO-independent clones were isolated. […] The disease was characterized by massive infiltration of CD41^+ cells in the bone marrow and spleen.
After 3 days, the mice were treated with twice daily doses of DMF for 10 days. Seven mice were utilized per experimental condition. […] With 66 mg/kg nearly 50% of the mice remained disease free for at least 70 days. In contrast, all of mice fed only water (vehicle) died of leukemia by 20 days.
C57BL/6 mice (purchased from the Jackson Laboratory, Bar Harbor, Me.) were sub-lethally irradiated with 600 rads. Mice were then anesthetized by an IP injection of mixture of Ketamine (100 mg/kg) and xylazine (5 mg/kg) 2 hours after irradiation. C57/B16 mice were intravenously injected with 1×10^6 6133/MPL cells, which were labeled with green fluorescent protein (GFP). Two different doses of DMF (33 mg/kg or 66 mg/kg) or water were administered to mice by oral gavage twice daily (b.i.d.) starting on the 3rd day after transplantation. For pre-treatment model, 6133/MPL cells were incubated with 5 μM DMF or DMSO for 24 hours. Live cells treated with DMF or […] were separated with Ficoll and transplanted into sub-lethally irradiated mice. Development of disease was assessed with presence of GFP-positive cells in the peripheral blood by FACS and by monitoring the health and body weight of the animals. Mice were sacrificed based on a protocol that includes assessment of morbidity by >20% loss of weight, severe anemia, scruffy appearance, and/or severe lethargy.

With dimethylfasudil [DMF], the induction of polyploidization result in the test with CMK cells is “potent inducer of polyploidization”. Besides, in the test on GIME cells, the “expression of the late megakaryocyte marker CD42” value is given as 66.3%. The “polyploidization of primary human megakaryocytes” value in test [1] was “potently induced polyploidization”. The “leukemia free survival p” value in test [2] (33 mg/kg by oral gavage vs vehicle) stood at 0.003; in test [2] (66 mg/kg by oral gavage vs vehicle), 0.004. For the same substance, the lifespan entry in test [2] (33 mg/kg twice daily oral gavage for 10 days) and in test [2] (66 mg/kg twice daily oral gavage for 10 days) was “significant extensions in lifespan” each time. Further, the “mice remaining disease free for at least 70 days” value in test [2] (66 mg/kg twice daily oral gavage) is on record as roughly 50%. Moreover, in test [2] (feeding to mice), the “long-term survival of mice” value is given as “up to 50%”.
